Assay results as given in patent US12479847B2 (DANA-FARBER CANCER INSTITUTE, INC., priority 2019, dated 2025).

Assays:
Experiment in all cases: KINOMEscan (ScanMAX) kinase profiling
Assay type in all cases: binding
panel of 468 kinases [1] = molecular target: T1, panel of 468 kinases (Homo sapiens, UniProt Q00535); conditions: CDK5; 1 μM; read-out: % control
T1 construct: purchased KINOMEscan (ScanMAX) service

panel of 468 kinases [2] = molecular target: T2, panel of 468 kinases (Homo sapiens, UniProt Q9BYT3); conditions: STK33; 1 μM; read-out: % control
T2 construct: purchased KINOMEscan (ScanMAX) service

panel of 468 kinases [3] = molecular target: T3, panel of 468 kinases (Homo sapiens, UniProt P49760); conditions: CLK2; 1 μM; read-out: % control
T3 construct: purchased KINOMEscan (ScanMAX) service

panel of 468 kinases [4] = molecular target: T4, panel of 468 kinases (Homo sapiens, UniProt P48736); conditions: PIK3CG; 1 μM; read-out: % control
T4 construct: purchased KINOMEscan (ScanMAX) service

panel of 468 kinases [5] = molecular target: T5, panel of 468 kinases (Homo sapiens, UniProt O75385); conditions: ULK1; 1 μM; read-out: % control
T5 construct: purchased KINOMEscan (ScanMAX) service
T5 sequence (O75385 1-1050): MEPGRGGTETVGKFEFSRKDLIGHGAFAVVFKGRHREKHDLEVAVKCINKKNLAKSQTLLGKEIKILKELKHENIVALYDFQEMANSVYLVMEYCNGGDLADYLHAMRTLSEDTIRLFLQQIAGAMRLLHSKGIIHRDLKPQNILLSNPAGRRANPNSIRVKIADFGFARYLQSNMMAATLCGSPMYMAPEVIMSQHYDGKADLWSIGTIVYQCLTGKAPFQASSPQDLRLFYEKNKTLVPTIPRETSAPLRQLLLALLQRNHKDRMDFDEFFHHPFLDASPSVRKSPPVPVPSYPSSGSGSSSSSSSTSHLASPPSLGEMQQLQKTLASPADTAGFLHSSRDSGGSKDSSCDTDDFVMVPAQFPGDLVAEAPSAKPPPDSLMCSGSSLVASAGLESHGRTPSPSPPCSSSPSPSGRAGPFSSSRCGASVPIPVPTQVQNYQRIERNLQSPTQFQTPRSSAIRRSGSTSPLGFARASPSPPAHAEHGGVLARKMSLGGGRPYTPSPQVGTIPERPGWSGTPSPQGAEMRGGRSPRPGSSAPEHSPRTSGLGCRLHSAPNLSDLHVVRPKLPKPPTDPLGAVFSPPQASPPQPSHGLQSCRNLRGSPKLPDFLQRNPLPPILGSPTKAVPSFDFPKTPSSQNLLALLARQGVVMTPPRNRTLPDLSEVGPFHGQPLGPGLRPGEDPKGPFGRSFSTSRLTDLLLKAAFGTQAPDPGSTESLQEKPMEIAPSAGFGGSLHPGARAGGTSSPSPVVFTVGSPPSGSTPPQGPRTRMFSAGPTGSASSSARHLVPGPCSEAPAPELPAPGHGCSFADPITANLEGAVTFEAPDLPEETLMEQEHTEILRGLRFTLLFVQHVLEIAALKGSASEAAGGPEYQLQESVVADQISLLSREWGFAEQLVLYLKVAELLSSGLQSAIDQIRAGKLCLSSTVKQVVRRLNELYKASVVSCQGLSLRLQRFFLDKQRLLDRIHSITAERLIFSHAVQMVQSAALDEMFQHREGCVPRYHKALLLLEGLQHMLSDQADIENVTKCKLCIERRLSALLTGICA

panel of 468 kinases [6] = molecular target: T6, panel of 468 kinases (Homo sapiens, UniProt P33981); conditions: TTK; 1 μM; read-out: % control
T6 construct: purchased KINOMEscan (ScanMAX) service
T6 sequence (P33981 1-857): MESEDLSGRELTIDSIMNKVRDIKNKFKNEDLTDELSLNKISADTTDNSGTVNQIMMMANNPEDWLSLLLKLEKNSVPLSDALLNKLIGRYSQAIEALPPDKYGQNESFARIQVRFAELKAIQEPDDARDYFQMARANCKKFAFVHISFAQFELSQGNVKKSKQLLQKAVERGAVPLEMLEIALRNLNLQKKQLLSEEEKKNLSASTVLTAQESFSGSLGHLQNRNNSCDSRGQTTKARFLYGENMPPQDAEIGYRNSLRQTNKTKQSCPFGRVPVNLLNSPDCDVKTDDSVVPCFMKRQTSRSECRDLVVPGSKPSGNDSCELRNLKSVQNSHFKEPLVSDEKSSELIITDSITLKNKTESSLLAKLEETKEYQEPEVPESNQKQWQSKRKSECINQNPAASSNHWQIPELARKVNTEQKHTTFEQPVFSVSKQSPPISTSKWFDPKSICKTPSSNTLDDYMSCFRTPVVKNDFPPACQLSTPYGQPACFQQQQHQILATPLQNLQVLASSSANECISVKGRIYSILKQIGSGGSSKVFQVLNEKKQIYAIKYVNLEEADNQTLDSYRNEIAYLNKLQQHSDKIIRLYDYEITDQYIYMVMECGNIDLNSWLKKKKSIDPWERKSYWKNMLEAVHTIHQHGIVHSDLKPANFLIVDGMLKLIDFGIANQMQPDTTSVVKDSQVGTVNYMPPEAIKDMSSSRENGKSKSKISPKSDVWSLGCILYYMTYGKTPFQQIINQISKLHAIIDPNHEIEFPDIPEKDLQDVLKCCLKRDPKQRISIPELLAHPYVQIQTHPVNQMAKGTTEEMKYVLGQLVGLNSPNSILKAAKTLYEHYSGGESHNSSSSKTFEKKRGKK

panel of 468 kinases [7] = molecular target: T7, panel of 468 kinases (Homo sapiens, UniProt O14578); conditions: CIT; 1 μM; read-out: % control
T7 construct: purchased KINOMEscan (ScanMAX) service
T7 sequence (O14578 whole entry): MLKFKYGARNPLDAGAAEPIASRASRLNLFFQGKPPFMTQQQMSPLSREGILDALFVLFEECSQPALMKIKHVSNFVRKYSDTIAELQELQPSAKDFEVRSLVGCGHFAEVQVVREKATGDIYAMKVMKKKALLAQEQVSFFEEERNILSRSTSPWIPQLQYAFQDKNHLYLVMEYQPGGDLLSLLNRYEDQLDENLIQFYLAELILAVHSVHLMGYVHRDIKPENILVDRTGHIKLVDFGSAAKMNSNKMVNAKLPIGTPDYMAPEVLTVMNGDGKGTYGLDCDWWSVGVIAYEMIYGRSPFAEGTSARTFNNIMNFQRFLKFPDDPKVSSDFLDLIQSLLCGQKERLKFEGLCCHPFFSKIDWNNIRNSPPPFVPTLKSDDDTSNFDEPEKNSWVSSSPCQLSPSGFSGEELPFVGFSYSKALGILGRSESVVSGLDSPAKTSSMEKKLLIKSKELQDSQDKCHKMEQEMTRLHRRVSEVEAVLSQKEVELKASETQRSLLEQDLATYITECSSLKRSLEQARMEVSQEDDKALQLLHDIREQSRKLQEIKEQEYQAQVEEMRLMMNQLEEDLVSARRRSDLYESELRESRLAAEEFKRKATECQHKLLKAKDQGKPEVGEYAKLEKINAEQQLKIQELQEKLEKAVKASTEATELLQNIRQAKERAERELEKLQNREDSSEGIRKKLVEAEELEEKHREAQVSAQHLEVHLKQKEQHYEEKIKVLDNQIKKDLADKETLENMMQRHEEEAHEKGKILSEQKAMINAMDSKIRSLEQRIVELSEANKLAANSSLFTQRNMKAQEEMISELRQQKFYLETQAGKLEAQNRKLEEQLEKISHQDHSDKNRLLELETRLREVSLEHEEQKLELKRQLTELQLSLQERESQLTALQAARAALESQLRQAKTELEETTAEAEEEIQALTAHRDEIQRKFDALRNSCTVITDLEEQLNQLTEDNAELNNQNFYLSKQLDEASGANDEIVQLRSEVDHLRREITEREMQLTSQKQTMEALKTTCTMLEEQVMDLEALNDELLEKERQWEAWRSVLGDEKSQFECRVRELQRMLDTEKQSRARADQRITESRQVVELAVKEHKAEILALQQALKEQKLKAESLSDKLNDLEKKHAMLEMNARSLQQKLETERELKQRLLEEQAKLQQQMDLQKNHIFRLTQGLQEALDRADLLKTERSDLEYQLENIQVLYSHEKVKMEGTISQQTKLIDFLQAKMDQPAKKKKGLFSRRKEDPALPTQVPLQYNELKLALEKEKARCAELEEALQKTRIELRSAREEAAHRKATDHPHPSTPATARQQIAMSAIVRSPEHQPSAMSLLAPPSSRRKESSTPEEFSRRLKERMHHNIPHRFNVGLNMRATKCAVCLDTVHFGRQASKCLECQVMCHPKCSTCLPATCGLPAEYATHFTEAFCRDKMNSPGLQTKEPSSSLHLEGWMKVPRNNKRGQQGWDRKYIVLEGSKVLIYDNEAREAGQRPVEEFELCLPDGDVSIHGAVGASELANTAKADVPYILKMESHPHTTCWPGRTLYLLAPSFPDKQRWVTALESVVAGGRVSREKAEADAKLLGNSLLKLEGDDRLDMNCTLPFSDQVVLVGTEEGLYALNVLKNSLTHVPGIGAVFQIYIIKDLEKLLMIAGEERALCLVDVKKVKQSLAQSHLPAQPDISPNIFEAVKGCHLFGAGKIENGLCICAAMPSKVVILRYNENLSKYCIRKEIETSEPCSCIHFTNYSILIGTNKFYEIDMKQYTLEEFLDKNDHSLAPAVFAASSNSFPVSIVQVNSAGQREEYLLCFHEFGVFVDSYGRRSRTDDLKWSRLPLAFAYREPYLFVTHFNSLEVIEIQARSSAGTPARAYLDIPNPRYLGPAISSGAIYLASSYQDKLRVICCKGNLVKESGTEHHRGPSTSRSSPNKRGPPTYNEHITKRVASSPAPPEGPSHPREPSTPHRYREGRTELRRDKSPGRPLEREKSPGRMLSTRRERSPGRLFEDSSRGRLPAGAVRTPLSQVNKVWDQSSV

T2 sequence (Q9BYT3 whole entry): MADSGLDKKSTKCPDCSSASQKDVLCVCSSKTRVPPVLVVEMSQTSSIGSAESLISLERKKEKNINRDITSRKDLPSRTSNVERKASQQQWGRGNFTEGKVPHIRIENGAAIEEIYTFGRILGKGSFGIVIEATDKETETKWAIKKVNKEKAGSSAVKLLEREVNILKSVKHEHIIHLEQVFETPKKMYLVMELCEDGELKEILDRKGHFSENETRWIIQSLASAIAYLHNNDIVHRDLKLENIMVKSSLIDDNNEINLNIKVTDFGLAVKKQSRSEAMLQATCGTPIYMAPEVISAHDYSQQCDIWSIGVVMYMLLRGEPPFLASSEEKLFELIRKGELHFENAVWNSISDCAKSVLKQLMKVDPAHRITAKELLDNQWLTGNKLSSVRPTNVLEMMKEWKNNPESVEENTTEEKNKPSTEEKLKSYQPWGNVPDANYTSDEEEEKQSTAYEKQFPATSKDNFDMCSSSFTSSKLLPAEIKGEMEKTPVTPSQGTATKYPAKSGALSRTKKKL
T1 sequence (Q00535 whole entry): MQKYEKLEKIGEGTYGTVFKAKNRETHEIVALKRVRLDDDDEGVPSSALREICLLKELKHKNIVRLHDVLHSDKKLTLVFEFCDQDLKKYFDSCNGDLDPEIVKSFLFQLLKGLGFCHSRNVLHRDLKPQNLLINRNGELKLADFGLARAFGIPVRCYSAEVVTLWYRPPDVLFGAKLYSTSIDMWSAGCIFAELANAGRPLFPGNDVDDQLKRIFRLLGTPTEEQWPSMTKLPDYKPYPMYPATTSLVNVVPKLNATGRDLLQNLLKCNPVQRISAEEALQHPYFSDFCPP
T4 sequence (P48736 whole entry): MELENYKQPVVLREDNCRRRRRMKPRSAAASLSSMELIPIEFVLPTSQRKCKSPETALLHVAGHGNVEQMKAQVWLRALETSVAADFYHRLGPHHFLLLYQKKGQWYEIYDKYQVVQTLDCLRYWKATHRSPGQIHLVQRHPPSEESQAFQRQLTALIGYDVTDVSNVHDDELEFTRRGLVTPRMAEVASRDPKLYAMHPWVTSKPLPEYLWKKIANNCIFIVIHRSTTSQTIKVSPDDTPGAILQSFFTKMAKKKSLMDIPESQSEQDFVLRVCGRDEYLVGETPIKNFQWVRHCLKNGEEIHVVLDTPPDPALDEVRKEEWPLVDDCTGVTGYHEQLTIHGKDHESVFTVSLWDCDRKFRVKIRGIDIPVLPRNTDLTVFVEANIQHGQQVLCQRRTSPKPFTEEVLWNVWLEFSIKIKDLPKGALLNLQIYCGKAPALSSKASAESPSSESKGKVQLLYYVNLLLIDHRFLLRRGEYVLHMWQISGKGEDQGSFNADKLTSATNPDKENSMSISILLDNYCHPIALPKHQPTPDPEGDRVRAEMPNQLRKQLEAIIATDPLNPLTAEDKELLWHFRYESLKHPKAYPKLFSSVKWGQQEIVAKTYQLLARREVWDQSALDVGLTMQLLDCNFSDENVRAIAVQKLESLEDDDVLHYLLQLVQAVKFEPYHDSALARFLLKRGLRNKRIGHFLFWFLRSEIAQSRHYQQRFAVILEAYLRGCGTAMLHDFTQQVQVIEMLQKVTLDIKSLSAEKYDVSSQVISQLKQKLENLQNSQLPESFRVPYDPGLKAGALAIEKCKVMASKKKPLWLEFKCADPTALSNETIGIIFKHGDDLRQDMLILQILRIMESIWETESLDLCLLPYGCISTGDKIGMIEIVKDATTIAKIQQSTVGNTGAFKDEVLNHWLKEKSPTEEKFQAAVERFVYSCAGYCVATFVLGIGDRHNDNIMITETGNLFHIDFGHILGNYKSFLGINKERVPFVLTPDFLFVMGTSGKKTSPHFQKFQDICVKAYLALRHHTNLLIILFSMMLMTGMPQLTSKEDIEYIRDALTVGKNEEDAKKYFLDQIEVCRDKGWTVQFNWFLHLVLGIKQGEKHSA
T3 sequence (P49760 whole entry): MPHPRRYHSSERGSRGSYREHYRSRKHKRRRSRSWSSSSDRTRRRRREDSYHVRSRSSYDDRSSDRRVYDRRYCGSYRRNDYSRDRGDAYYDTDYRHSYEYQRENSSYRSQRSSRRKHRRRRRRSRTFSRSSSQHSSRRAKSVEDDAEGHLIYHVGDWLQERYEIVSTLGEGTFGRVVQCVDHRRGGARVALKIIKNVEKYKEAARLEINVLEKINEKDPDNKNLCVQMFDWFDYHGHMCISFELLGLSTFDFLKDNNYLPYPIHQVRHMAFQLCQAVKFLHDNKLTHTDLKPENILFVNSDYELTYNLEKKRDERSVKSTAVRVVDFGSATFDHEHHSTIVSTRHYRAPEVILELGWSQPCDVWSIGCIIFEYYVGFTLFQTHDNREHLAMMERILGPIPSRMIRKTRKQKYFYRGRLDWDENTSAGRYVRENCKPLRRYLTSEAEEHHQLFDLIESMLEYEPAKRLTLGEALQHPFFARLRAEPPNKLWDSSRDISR

In the case of `CNc1nc(Nc2ccc(S(=O)(=O)N3CCC(N4CCOCC4)CC3)cc2OC)nc2[nH]cc(Cl)c12` [Compound 12, 5-chloro-N2-(2-methoxy-4-((4-morpholinopiperidin-1-yl)sulfonyl)phenyl)-N4-methyl-7H-pyrrolo[2,3-d]pyrimidine-2,4-diamine], the remaining binding at 1 µM (panel of 468 kinases [1]) is reported as 100%, the remaining binding at 1 µM (panel of 468 kinases [2]) is reported as 10% and the remaining binding at 1 µM (panel of 468 kinases [3]) is reported as 55%. The remaining binding at 1 µM (panel of 468 kinases [4]) was 95%, the remaining binding at 1 µM (panel of 468 kinases [5]) was 97% and the remaining binding at 1 µM (panel of 468 kinases [6]) was 1%. The remaining binding at 1 µM (panel of 468 kinases [7]) was 85%.
For `CNc1nc(Nc2ccc(C(=O)N3CCC(N4CCOCC4)CC3)c3c2OCO3)nc2[nH]cc(Cl)c12` [Compound 75, (7-((5-chloro-4-(methylamino)-7H-pyrrolo[2,3-d]pyrimidin-2-yl)amino)benzo[d][1,3]dioxol-4-yl)(4-morpholinopiperidin-1-yl)methanone], the remaining binding at 1 µM (panel of 468 kinases [1]) was 100%, the remaining binding at 1 µM (panel of 468 kinases [2]) was 7.2% and the remaining binding at 1 µM (panel of 468 kinases [3]) was 21%. It also gave a remaining binding at 1 µM (panel of 468 kinases [4]) of 100%, a remaining binding at 1 µM (panel of 468 kinases [5]) of 50% and a remaining binding at 1 µM (panel of 468 kinases [6]) of 0.6%. For the same compound, the remaining binding at 1 µM (panel of 468 kinases [7]) was 35%.
For `CNc1nc(Nc2ccc(P3(=O)CCN(C4CCOCC4)CC3)cc2OC)nc2[nH]cc(Cl)c12` [Compound 77, 4-(4-((5-chloro-4-(methylamino)-7H-pyrrolo[2,3-d]pyrimidin-2-yl)amino)-3-methoxyphenyl)-1-(tetrahydro-2H-pyran-4-yl)-1,4-azaphosphinane 4-oxide], the remaining binding at 1 µM (panel of 468 kinases [1]) was 100%, the remaining binding at 1 µM (panel of 468 kinases [2]) was 6.9% and the remaining binding at 1 µM (panel of 468 kinases [3]) was 28%. The remaining binding at 1 µM (panel of 468 kinases [4]) was 100%, the remaining binding at 1 µM (panel of 468 kinases [5]) was 95% and the remaining binding at 1 µM (panel of 468 kinases [6]) was 0.5%. It also gave a remaining binding at 1 µM (panel of 468 kinases [7]) of 93%.
